Laboratory results taken from patent US20190284635A1, “METHOD FOR THE PROGNOSIS AND/OR TREATMENT OF ACUTE PROMYELOCYTIC LEUKEMIA” (EPI-C S.R.L., priority 2016, published 2019).
Values belong to the molecule of their own block, whether it stands above or below them.

Tests used:
[1] = test system: NB4 cells; test: Cell death induction in NB4 cells; assay type: cell-based, human; settings: for cytotoxicity at 3 µM: Homo sapiens, NB-4, 30 h; for % Cell death NB4 cells: 3 μM, 30 h
Procedure: (§1) For cell cycle analyses, the cells were plated (2×10^5 cells/mL) and after stimulation (performed as indicated in the text) were harvested, centrifuged at 1200 rpm for 5 minutes and resuspended in 500 μL of a hypotonic solution containing 1×PBS, Sodium Citrate 0.1%, 0.1% NP-40, RNAase A and […] Propidium Iodide (PI) (a dye that intercalates between the DNA bases, marking the DNA content in the cells and emitting a fluorescent signal that enables the analysis). After 30′ at room temperature (RT) in the dark, samples were acquired by FACS-Calibur (BD Bioscences, San Jose, Calif., USA) using CellQuest software (BD Biosciences). The percentage in different phases of the cell cycle was determined by ModFit LT V3 software (Verity). All experiments were performed in triplicate.
When tested in leukemia NB4 cells at 3 μM for 30 h, MC2884 induced 52.1% cell death. Some MC2884 analogues have been tested to obtain SAR data (Table 8).

[2] = test system: SHSY5Y cells; test: Cell death induction in SHSY5Y cells; assay type: cell-based; settings: 48 h; for cytotoxicity at 3 µM: Homo sapiens, SH-SY5Y; for cell death induction in SHSY5Y cells, in words, relative to MC2884: 3 μM
Procedure: as §1
When tested in neuroblastoma SHSY5Y cells at 3 μM for 48 h, MC2884 and its analogues furnished similar trend of death induction as in NB4 cells (Table 7). In general, the SHSY5Y cell line is less sensitive to the tested molecules than NB4 cells.

[3] = target: CBP (Homo sapiens, UniProt Q92793); test: HAT in vitro assay, CBP; assay type: biochemical; settings: substrate Histone H3; 3 μM Acetyl-CoA; 10-dose IC50 mode; read-out: IC50 CBP acetyltransferase
CBP, sequence (Q92793 whole entry): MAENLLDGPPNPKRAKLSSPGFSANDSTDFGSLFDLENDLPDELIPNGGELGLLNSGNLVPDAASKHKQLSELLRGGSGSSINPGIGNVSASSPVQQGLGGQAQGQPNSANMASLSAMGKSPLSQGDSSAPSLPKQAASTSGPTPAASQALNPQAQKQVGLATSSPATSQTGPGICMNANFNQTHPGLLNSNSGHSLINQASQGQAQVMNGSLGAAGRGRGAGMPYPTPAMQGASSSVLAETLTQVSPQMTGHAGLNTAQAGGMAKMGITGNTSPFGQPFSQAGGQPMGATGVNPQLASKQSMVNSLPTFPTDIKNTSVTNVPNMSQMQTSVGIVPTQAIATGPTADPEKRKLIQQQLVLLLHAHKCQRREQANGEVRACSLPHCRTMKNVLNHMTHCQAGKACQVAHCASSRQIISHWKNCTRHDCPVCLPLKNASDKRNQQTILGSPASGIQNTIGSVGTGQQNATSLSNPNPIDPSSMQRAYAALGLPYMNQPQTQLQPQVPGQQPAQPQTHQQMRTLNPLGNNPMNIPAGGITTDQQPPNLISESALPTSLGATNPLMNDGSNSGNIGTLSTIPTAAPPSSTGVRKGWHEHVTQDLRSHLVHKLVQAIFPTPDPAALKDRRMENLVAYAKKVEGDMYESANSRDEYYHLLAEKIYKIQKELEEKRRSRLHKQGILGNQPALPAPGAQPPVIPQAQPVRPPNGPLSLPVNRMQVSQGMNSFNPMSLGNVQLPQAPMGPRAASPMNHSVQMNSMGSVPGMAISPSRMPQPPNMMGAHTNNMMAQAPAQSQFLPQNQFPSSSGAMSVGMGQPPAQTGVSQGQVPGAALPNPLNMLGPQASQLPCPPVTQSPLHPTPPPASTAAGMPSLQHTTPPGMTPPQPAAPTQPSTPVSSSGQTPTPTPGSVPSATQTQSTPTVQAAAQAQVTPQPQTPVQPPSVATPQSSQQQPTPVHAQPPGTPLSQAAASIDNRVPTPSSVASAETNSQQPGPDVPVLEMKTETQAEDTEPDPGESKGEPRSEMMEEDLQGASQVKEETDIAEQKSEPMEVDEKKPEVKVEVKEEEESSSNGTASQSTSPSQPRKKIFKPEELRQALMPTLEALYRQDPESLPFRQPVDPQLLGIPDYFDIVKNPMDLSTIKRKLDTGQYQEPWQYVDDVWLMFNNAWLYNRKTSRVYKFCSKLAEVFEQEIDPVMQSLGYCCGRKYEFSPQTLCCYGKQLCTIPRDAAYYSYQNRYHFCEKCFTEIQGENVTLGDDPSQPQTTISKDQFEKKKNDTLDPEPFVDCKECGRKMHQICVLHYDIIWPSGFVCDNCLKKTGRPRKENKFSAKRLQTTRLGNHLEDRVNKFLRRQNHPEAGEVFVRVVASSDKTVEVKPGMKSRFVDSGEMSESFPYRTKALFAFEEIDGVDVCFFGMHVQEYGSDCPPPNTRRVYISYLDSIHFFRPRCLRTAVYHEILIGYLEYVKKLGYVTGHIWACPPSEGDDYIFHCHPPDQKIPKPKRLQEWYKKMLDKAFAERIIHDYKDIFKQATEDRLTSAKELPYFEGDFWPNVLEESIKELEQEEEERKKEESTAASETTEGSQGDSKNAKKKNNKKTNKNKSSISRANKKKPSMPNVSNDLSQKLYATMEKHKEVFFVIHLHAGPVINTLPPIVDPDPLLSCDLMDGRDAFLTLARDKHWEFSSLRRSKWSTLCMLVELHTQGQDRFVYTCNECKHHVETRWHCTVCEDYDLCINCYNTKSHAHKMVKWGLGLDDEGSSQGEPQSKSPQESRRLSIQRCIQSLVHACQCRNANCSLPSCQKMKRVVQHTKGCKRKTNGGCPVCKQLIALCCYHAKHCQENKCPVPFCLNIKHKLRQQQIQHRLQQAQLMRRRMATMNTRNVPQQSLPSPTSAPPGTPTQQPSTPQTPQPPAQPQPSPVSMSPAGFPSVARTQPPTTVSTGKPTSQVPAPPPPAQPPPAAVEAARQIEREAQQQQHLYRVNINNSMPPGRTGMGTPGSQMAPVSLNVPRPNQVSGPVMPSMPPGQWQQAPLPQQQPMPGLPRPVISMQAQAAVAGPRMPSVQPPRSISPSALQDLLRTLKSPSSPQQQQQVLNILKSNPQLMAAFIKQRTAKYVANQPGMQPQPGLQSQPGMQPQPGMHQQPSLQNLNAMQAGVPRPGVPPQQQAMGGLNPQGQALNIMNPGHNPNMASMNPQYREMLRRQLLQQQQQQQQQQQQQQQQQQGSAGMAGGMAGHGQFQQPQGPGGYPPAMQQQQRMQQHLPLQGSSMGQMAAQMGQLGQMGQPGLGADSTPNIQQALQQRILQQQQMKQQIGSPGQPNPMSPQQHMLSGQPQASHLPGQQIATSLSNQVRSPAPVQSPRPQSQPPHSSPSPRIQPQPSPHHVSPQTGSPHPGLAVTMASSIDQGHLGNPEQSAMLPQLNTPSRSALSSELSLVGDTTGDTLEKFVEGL
Procedure: (§2) MC2884 activity was also tested in vitro and IC50 was calculated as indicated in the scheme. […] Reactions were carried out at 3 μM Acetyl-CoA. Empty cells indicate no inhibition or compound activity that could not be fit to an IC50 curve.

[4] = target: KAT5 (Homo sapiens, UniProt Q92993); test: HAT in vitro assay, KAT5; assay type: biochemical; settings: substrate Histone H2A; 3 μM Acetyl-CoA; 10-dose IC50 mode; read-out: IC50 KAT5 acetyltransferase
KAT5, sequence (Q92993 whole entry): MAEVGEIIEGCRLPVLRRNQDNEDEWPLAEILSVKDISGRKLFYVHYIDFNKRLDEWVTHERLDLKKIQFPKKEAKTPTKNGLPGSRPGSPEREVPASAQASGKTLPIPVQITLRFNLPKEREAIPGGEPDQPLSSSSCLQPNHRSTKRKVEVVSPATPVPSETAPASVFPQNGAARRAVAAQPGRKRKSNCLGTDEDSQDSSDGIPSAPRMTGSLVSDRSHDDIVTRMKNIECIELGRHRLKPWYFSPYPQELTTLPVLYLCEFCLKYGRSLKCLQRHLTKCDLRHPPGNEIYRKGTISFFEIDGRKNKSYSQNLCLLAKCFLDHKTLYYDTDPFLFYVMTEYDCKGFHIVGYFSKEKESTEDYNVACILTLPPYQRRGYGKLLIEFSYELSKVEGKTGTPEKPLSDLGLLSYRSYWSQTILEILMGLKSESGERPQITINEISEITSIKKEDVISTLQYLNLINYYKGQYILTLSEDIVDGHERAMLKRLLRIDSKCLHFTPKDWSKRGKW
Procedure: as §2

[5] = target: GCN5 (Homo sapiens, UniProt Q92830); test: HAT in vitro assay, GCN5; assay type: biochemical; settings: substrate Histone H3; 3 μM Acetyl-CoA; 10-dose IC50 mode; read-out: IC50 GCN5 acetyltransferase
GCN5, sequence (Q92830 whole entry): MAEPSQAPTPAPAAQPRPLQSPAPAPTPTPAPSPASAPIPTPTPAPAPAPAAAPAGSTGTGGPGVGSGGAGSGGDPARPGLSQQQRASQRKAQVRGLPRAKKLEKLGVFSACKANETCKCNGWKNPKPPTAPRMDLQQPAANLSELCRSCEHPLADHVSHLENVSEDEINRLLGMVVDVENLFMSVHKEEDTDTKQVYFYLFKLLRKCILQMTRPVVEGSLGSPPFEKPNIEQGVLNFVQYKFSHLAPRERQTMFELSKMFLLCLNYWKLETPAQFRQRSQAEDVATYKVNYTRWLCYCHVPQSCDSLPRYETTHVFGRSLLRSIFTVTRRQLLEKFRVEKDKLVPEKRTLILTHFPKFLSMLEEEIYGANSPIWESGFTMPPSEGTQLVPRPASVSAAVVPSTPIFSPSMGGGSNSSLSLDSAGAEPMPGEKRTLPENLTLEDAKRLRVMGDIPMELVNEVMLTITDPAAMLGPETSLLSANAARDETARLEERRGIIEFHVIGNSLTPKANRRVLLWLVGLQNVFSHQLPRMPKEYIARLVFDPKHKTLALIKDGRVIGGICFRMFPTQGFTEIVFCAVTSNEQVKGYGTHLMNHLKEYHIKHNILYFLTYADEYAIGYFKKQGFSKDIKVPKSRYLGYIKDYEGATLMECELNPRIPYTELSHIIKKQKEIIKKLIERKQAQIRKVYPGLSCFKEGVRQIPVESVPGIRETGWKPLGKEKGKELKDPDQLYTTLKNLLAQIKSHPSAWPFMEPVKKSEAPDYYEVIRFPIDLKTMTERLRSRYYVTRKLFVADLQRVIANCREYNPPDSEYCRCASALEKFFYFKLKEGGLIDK
Procedure: as §2

[6] = target: pCAF (Homo sapiens, UniProt Q92831); test: HAT in vitro assay, pCAF; assay type: biochemical; settings: substrate Histone H3; 3 μM Acetyl-CoA; 10-dose IC50 mode; read-out: IC50 pCAF acetyltransferase
pCAF, sequence (Q92831 whole entry): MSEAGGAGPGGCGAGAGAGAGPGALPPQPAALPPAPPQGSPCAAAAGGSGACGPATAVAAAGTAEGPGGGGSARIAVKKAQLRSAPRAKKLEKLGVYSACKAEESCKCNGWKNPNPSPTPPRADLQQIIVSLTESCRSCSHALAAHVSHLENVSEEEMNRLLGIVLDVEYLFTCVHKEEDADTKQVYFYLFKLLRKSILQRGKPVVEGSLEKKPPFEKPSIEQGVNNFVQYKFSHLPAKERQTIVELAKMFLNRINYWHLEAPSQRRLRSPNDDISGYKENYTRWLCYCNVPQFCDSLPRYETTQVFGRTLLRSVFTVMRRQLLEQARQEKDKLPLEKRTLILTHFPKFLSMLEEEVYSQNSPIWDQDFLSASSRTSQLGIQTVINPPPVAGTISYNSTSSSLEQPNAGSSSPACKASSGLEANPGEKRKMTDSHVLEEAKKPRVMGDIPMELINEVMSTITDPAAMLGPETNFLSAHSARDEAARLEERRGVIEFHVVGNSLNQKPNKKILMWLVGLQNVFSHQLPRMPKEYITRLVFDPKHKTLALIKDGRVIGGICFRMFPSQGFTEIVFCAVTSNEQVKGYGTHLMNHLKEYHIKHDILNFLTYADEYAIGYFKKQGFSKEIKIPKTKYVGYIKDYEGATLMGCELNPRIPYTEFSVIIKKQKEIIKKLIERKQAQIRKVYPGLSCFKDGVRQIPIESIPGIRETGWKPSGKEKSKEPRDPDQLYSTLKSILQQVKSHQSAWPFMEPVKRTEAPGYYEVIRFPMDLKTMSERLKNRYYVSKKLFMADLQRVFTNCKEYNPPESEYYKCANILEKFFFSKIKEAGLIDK
Procedure: as §2

[7] = test system: APL-Rs (pt#7 and 8) blasts; test: Cell death in ex vivo APL-R blasts; assay type: cell-based, human; settings: pt#7 and 8, 24 h
Procedure: Blasts cells were purified by the Ficoll-Hypaque gradient separation method (GE Healthcare). RNA was obtained by using TRIzol (Life Technologies) according to the manufacturer's recommendations. Isolation of genomic DNA has complied the FlexiGene DNA protocol (Qiagen).
To further strengthen our findings in primary human cells, apoptosis was evaluated in 6 AML patient blasts (FIG. 10C).

[8] = test system: acetyl-H3K9-14, H3K27me3/2, EZH2 in NB4 cells; test: Western blot of histone marks and EZH2 in NB4 cells; assay type: cell-based, human
Procedure: The procedures were performed as described in (31,34). Primary antibodies used were: H3K27me3 (Abcam); H3K9-14ac (Millipore); H3K27ac, EZH2, PARP, TRAIL, RIP (Abcam); BID, BAX, BCL2 (Cell Signaling); BCL-XL (BD Biosciences); ERKs (Santa Cruz) and α-tubulin (Sigma) were used to normalize the total protein extracts, while H1 (Abcam) to normalize histone extracts.

[9] = test system: NB4 cells; test: Combination of ABT-737 with MC2884, pre-G1 cells; assay type: cell-based, human; settings: ABT-737 with addition of MC2884 at concentrations that alone induced little apoptosis
[10] = Stability of MC2884 in cell culture medium (DMEM, RP-HPLC); assay type: physicochemical; settings: 50 μM in DMEM
Procedure: The compound was dissolved in DMEM at 50 μM and its concentration was measured by RP-HPLC using a ONYX 50×2 mm ID C18 column operating at 600 μL/min. The gradient applied was from 1% solvent B to 70% solvent B in 10 minutes. Solvent A was water with added 0.1% trifluoroacetic acid (TFA) and solvent B was acetonitrile with added 0.1% TFA. The eluate was monitored using a diode array detector with wavelengths set between 200-320 nm. The compound was eluted at 11.1 min. Peak integration was carried out on the chromatogram extracted at […], which is one of the compound absorbance maxima. A calibration curve was built by injecting solutions of the compound in DMSO at concentrations ranging between 1.5 μM and 200 μM. After incubation in DMEM compound concentration was determined at time points ranging between 0 and 72 hrs. As shown, half of compound was degraded after 10h. At 72 hrs it was fully degraded under these conditions.

[11] = Mouse terminal IV PK study; assay type: in vivo; settings: 2 mg/kg, male CD1 mice, plasma
Procedure: (§3) Compound was administered both intravenously and intraperitoneally to mice. Blood samples were collected at 8 time points over 24 hr and plasma analysed by LC-MS/MS to determine the concentration of compound.
(§4) The plasma time concentration profile was calculated with the main PK parameters (Co, AUClast, t, VD, and CL).
For iv dosing. Compound was dissolved at 0.4 mg/mL. This provided a dose of 2 mg free base material/kg when administered iv in a 5 mL/kg dosing volume.
Compound MC2884 was given iv via the lateral tail vein at a dose of 2 mg/kg to a group of 24 normally fed male CD1 mice in a 5 mL/kg injection volume. Terminal blood samples (>230 μL) were taken under CO2 from groups of 3 mice at each of 8 time-points post dose (0.083, 0.25, 0.5, 1, 2, 4, 8 and 24 h) and placed into heparinized tubes. Samples were placed on ice for no longer than 30 min before centrifugation (10,000 rpm×3 min). Plasma samples (>100 μL) were collected into fresh tubes and frozen on dry ice. Number of plasma samples=24. Consistent IV profiles were obtained, with little variability across the time-points (the average profile is shown in the second spreadsheet). […] FIG. 17-18 display results for IV-IP administration of MC2884 in normal mice.

[12] = Mouse terminal IP PK study; assay type: in vivo, male CD1 mice; settings: plasma, 2 mg/kg
Procedure: as §3, §4
For ip dosing. After formulation assessment, MC2884 was dissolved at 0.2 mg/mL. This provided a dose of 2 mg free base material/kg when administered ip in a 10 mL/kg dosing volume.
Compound MC2884 was given ip at a dose of 2 mg/kg to a group of 24 normally fed male CD1 mice in a 10 mL/kg injection volume. Terminal blood samples (>230 μL) were taken under CO2 from groups of 3 mice at each of 8 time-points post dose (0.083, 0.25, 0.5, 1, 2, 4, 8 and 24 h) and placed into heparinized tubes. Samples were placed on ice for no longer than 30 min before centrifugation (10,000 rpm×3 min). Plasma samples (>100 μL) were collected into fresh tubes and frozen on dry ice. All samples were stored at −20° C. Number of plasma samples=24. FIG. 17-18 display results for IV-IP administration of MC2884 in normal mice

[13] = target: T1, CYP3A4 (Homo sapiens, UniProt P08684); test: Cytochrome P450 inhibition, CYP3A4, human liver microsomes; assay type: in vitro ADME; settings: at 25 μM, probe midazolam
T1 construct: from tissue; host or cells: human liver microsomes
T1 sequence (P08684 whole entry): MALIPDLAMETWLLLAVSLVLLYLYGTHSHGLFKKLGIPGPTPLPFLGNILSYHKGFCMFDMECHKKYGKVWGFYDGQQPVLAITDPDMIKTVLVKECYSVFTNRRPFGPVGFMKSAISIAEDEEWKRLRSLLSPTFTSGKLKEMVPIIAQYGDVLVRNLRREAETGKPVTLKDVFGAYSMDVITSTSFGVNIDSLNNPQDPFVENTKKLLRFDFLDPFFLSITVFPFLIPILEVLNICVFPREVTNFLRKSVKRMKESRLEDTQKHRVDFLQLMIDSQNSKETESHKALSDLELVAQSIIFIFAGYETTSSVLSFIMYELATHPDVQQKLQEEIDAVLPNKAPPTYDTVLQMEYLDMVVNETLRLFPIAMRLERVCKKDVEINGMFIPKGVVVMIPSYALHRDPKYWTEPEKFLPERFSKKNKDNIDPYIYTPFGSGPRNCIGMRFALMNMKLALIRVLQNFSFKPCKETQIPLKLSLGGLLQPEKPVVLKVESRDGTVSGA

[14] = test system: immortalized non-cancer cell systems; test: Cytotoxicity on immortalized non-cancer cells; settings: at the dose effective on cancer cells

SMILES: O=C1/C(=C/c2cccc(Br)c2)COC/C1=C\c1cccc(Br)c1 [MC2912, 3,5-bis(3-bromobenzylidene)dihydro-2H-pyran-4(3H)-one]
cytotoxicity at 3 µM [1]: 4.1% | cytotoxicity at 3 µM [2]: 1%

SMILES: O=C1/C(=C/c2cccc(Br)c2)CN(C(=O)CCc2ccccc2)C/C1=C\c1cccc(Br)c1 [MC3187, 3,5-bis(3-bromobenzylidene)-1-(3-phenylpropanoyl) piperidin-4-one]
cytotoxicity at 3 µM [1]: 28.9% | cell death induction in SHSY5Y cells, in words, relative to MC2884 [2]: slightly more potent than MC2884 | cytotoxicity at 3 µM [2]: 19.9%

SMILES: O=C1/C(=C/c2cccc(Br)c2)CN(CCCc2ccccc2)C/C1=C\c1cccc(Br)c1 [MC3272, 3,5-bis(3-bromobenzyliden)-1-(3-phenylpropyl) piperidin-4-one]
cytotoxicity at 3 µM [1]: 29.2% | cytotoxicity at 3 µM [2]: 7%

SMILES: O=C1/C(=C/c2cccc(Br)c2)CN(C(=O)c2ccccc2)C/C1=C\c1cccc(Br)c1 [MC3146, 1-benzoyl-3,5-bis(3-bromobenzylidene)piperidin-4-one]
cytotoxicity at 3 µM [1]: 13.2% | cytotoxicity at 3 µM [2]: 5.6%

SMILES: O=C1/C(=C/c2cccc(Br)c2)CN(CCc2ccccc2)C/C1=C\c1cccc(Br)c1 [MC3269, 3,5-bis(3-bromobenzylidene)-1-phenethylpiperidin-4-one]
cytotoxicity at 3 µM [1]: 62.5% | cell death induction in SHSY5Y cells, in words, relative to MC2884 [2]: same potency as MC2884 | cytotoxicity at 3 µM [2]: 19.2%

SMILES: O=C(/C=C/c1ccc(Br)cc1)/C=C/c1ccc(Br)cc1 [MC2886, (1E,4E)-1,5-bis(4-bromophenyl)penta-1,4-dien-3-one]
cytotoxicity at 3 µM [1]: 0.56% | cytotoxicity at 3 µM [2]: 1.2%

IC50 [3]: 0.0787 µM | IC50 [4]: 20.4 µM
SMILES: CC1=NN(c2ccc(C(=O)O)cc2)C(=O)/C1=C\c1ccc(-c2cc(C)c(C)cc2[N+](=O)[O-])o1 [C646]

IC50 [5]: 38.6 µM | IC50 [6]: 38.8 µM
SMILES: CCCCCCCCCCCCCCCc1cccc(O)c1C(=O)O [Anacardic Acid]

SMILES: O=C1/C(=C/c2cccc(Br)c2)CCC/C1=C\c1cccc(Br)c1 [MC2911, 2,6-bis((E)-3-bromobenzylidene)cyclohexan-1-one]
cytotoxicity at 3 µM [1]: 0.76% | cytotoxicity at 3 µM [2]: 0.8%

SMILES: CC1=C(/C=C/C(C)=C/C=C/C(C)=C/C(=O)O)C(C)(C)CCC1 [ATRA, All Trans Retinoic Acid]
apoptosis in ex vivo APL-R blasts [7]: did not undergo efficient apoptosis

SMILES: O=C1/C(=C/c2ccc(Br)cc2)CN(Cc2ccccc2)C/C1=C\c1ccc(Br)cc1 [MC2909, 1-benzyl-3,5-bis(4-bromobenzylidene)piperidin-4-one]
cytotoxicity at 3 µM [1]: 8.8% | cell death induction in SHSY5Y cells, in words, relative to MC2884 [2]: less potent or not active | cytotoxicity at 3 µM [2]: 4.7% | modulation of histone acetylation and EZH2 deregulation [8]: unable to modulate

SMILES: CN(C)CC[C@H](CSc1ccccc1)Nc1ccc(S(=O)(=O)NC(=O)c2ccc(N3CCN(Cc4ccccc4-c4ccc(Cl)cc4)CC3)cc2)cc1[N+](=O)[O-] [ABT-737]
cell death with ABT-737 plus MC2884 [9]: up to 60%

SMILES: O=C1/C(=C/c2ccccc2Br)CN(Cc2ccccc2)C/C1=C\c1ccccc1Br [MC2908, 1-benzyl-3,5-bis(2-bromobenzylidene)piperidin-4-one]
cytotoxicity at 3 µM [1]: 30.3% | cytotoxicity at 3 µM [2]: 9.2%

SMILES: O=C1/C(=C/c2ccc(O)cc2Br)CN(Cc2ccccc2)C/C1=C\c1ccc(O)cc1Br [MC3395, 1-benzyl-3,5-bis((E)-2-bromo-4-hydroxybenzylidene)piperidin-4-one]
cytotoxicity at 3 µM [1]: 0.53% | cytotoxicity at 3 µM [2]: 1%

SMILES: O=C1/C(=C/c2cccc(Br)c2)CN(CC(=O)c2ccccc2)C/C1=C\c1cccc(Br)c1 [MC3207, 3,5-bis(3-bromobenzylidene)-1-(2-oxo-2-phenylethyl)piperidin-4-one]
% Cell death NB4 cells [1]: 38.0% | cytotoxicity at 3 µM [1]: 38% | cytotoxicity at 3 µM [2]: 7%

SMILES: CN1C/C(=C\c2cccc(Br)c2)C(=O)/C(=C/c2cccc(Br)c2)C1 [MC2914, 3,5-bis(3-bromobenzylidene)-1-methylpiperidin-4-one]
% Cell death NB4 cells [1]: 36.0% | cytotoxicity at 3 µM [1]: 36% | cell death induction in SHSY5Y cells, in words, relative to MC2884 [2]: reduced the potency | cytotoxicity at 3 µM [2]: 9%

SMILES: O=C1/C(=C/c2cccc(Br)c2)CSC/C1=C\c1cccc(Br)c1 [MC2913, 3,5-bis(3-bromobenzylidene)dihydro-2H-thiopyran-4(3H)-one]
cytotoxicity at 3 µM [1]: 52.7% | cytotoxicity at 3 µM [2]: 23.9%

SMILES: O=C1/C(=C/c2cccc(Br)c2)CN(Cc2ccccc2)C/C1=C\c1cccc(Br)c1 [MC2884, 1-benzyl-3,5-bis(3-bromobenzylidene)piperidin-4-one]
cytotoxicity at 3 µM [1]: 52.1% | time for total degradation in culture medium [10]: 72 h | average half-life [11]: 4.58 h | AUC ([11]; mouse): 13300 ng·h/mL | bioavailability ([12]; male, CD1, mouse, dose route IP, time frame 0-inf): 140% | AUC ([12]; mouse, ip, male CD1 mice): 18400 ng·h/mL | CYP3A4 % inhibition [13]: 45% | cytotoxicity on non-cancer cells [14]: low cytotoxicity

SMILES: O=C1/C(=C/c2cc(Br)cc(Br)c2)CN(Cc2ccccc2)C/C1=C\c1cc(Br)cc(Br)c1 [MC2910, 1-benzyl-3,5-bis(3,5-dibromobenzylidene)piperidin-4-one]
cytotoxicity at 3 µM [1]: 4.2% | cytotoxicity at 3 µM [2]: 2.4%
